19 compounds from BindingDB's records for patent WO2025051920 (Sanofi-Aventis Deutschland, 2025) can be followed below.

Bridge positions count the residues as written; N and C are the ends. Square brackets hold non-standard residues; d marks the D form. Peptide text beside a SMILES is read from it. ξ: configuration not given here. Trp(1-Me) = Cn1cc(C[C@H](N)C(=O)O)c2ccccc21; 2Nal = N[C@@H](Cc1ccc2ccccc2c1)C(=O)O; ξThr(3R) = C[C@@H](O)C(N)C(=O)O; ξH = NC(Cc1c[nH]cn1)C(=O)O; Thp = NC1(C(=O)O)CCOCC1; ξD = NC(CC(=O)O)C(=O)O; ξOrn = NCCCC(N)C(=O)O; Aib = CC(C)(N)C(=O)O; ξK = NCCCCC(N)C(=O)O

This experiment deals with Interleukin-23 subunit alpha/receptor (UniProt Q5VWK5). Put plainly: ELISA assay for specific human IL-23R inhibitors. Here is the method: A 384-well plate was coated with 50 µl/well of human IL-23 at a final concentration of […] and incubated overnight at 4°C. The wells were washed 3 times with […] wash buffer and blocked with […] blocking buffer for 60 minutes at room temperature and washed again. 20 µl of serially diluted test peptides was added to each well and subsequently 20 µl of recombinant human IL-23R-Fc chimera at final concentration of […]. The plate was incubated for 60 minutes at room temperature. After the wells were washed, bound IL-23R-Fc was detected with goat anti-hu- IgG 1 -HRP antibody. Signals were visualized with QuantaBlu Fluorogenic Peroxidase Substrate.
Chain of Interleukin-23 subunit alpha/receptor (Q9NPF7 whole entry): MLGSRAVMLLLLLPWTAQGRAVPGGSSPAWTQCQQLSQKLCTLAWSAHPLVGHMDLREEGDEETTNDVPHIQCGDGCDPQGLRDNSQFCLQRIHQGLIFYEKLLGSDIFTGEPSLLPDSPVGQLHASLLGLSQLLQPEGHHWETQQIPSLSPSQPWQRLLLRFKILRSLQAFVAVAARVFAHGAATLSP
Chain of Interleukin-23 subunit alpha/receptor (Q5VWK5 whole entry): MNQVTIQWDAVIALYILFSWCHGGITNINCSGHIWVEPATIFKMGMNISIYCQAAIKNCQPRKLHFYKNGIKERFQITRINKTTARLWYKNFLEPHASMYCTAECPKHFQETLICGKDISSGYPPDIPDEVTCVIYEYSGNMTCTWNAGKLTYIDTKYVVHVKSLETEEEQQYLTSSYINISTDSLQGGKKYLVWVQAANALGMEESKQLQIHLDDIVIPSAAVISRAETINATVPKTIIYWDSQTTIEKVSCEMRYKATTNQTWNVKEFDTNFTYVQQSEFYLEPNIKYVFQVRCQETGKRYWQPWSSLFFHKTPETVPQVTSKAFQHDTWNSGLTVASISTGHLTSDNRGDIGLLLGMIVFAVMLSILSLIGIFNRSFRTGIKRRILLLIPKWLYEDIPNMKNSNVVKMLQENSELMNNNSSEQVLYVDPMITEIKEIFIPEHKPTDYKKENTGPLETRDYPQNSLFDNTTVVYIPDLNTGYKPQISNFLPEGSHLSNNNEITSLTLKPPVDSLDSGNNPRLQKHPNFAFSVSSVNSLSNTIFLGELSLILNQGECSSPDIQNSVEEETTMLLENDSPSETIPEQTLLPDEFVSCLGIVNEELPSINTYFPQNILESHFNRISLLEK

Compound `COc1ccc(C[C@@H]2NC(=O)[C@H](CCCNC(=N)N)NC(=O)[C@H](CCC(N)=O)NC(=O)[C@H](Cc3c[nH]c4ccccc34)NC(=O)[C@H]([C@@H](C)O)NC(=O)[C@H](CC(N)=O)NC(=O)[C@H](NC(C)=O)CCCCNC(=O)C[C@@H](C(=O)N[C@@H](CC(N)=O)C(=O)N[C@@H](CC(N)=O)C(=O)O)NC(=O)[C@H](CCCNC(N)=O)NC(=O)[C@H](Cc3ccc4ccccc4c3)NC2=O)cc1` [WO2025051920, Example 29] gave an IC50 of 5.63 nM.

In turn, `COc1ccc(C[C@@H]2NC(=O)[C@H](CCCNC(=N)N)NC(=O)[C@H](CCC(N)=O)NC(=O)[C@H](Cc3c[nH]c4ccccc34)NC(=O)[C@H]([C@@H](C)O)NC(=O)[C@H](CC(N)=O)NC(=O)[C@H](NC(C)=O)CCCCNC(=O)C[C@@H](C(=O)N[C@@H](CC(N)=O)C(=O)N[C@@H](CC(N)=O)C(=O)O)NC(=O)[C@H](CCC(N)=O)NC(=O)[C@H](Cc3ccc4ccccc4c3)NC2=O)cc1` [WO2025051920, Example 30] came in with an IC50 of 9.64 nM. Against the preceding compound, the IC50 is about 1.7-fold higher.

For `COc1ccc(C[C@@H]2NC(=O)[C@H](C(C)C)NC(=O)[C@H](CCC(N)=O)NC(=O)[C@H](Cc3c[nH]c4ccccc34)NC(=O)[C@H]([C@@H](C)O)NC(=O)[C@H](CC(N)=O)NC(=O)[C@H](NC(C)=O)CCCCNC(=O)C[C@@H](C(=O)N[C@@H](CC(N)=O)C(=O)N[C@@H](CC(N)=O)C(=O)O)NC(=O)C(C)(C)NC(=O)[C@H](Cc3ccc4ccccc4c3)NC2=O)cc1` [WO2025051920, Example 31], the IC50 turned out to be 8.27 nM.

Take `COc1ccc(C[C@@H]2NC(=O)C(C)(C)NC(=O)[C@H](CCC(N)=O)NC(=O)[C@H](Cc3c[nH]c4ccccc34)NC(=O)[C@H]([C@@H](C)O)NC(=O)[C@H](CC(N)=O)NC(=O)[C@H](NC(C)=O)CCCCNC(=O)C[C@@H](C(=O)N[C@@H](CC(N)=O)C(=O)N[C@@H](CC(N)=O)C(=O)O)NC(=O)C(C)(C)NC(=O)[C@H](Cc3ccc4ccccc4c3)NC2=O)cc1` [WO2025051920, Example 32]: the concentration for half-maximal inhibition (IC50) came out at 2.68 nM.

As for `CC(=O)N[C@H]1CC(=O)NCCCC(C(=O)N[C@@H](CC(N)=O)C(=O)N[C@@H](CC(N)=O)C(=O)O)NC(=O)C(C)(C)NC(=O)[C@H](Cc2ccc3ccccc3c2)NC(=O)[C@H](Cc2ccc(O)cc2)NC(=O)[C@H](CCCNC(=N)N)NC(=O)[C@H](CCC(N)=O)NC(=O)[C@H](Cc2cn(C)c3ccccc23)NC(=O)[C@H]([C@@H](C)O)NC(=O)[C@H](CC(N)=O)NC1=O` (some centres undefined) [WO2025051920, Example 33] (Ac-DNT[Trp(1-Me)]QRY[2Nal][Aib][ξOrn]NN-OH; lactam 1-10), the IC50 came to 3.36 nM.

`COc1ccc(C[C@@H]2NC(=O)[C@H](CCCNC(=N)N)NC(=O)[C@H](CCC(N)=O)NC(=O)[C@H](Cc3cn(C)c4ccccc34)NC(=O)[C@H]([C@@H](C)O)NC(=O)[C@H](CC(N)=O)NC(=O)[C@@H](NC(C)=O)CC(=O)NCCCC(C(=O)N[C@@H](CC(N)=O)C(=O)N[C@@H](CC(N)=O)C(=O)O)NC(=O)C(C)(C)NC(=O)[C@H](Cc3ccc4ccccc4c3)NC2=O)cc1` (some centres undefined) [WO2025051920, Example 34] (Ac-DNT[Trp(1-Me)]QRY(Me)[2Nal][Aib][ξOrn]NN-OH; lactam 1-10): inhibition was half-maximal at 2.16 nM (IC50).

Compound `COc1ccc(C[C@@H]2NC(=O)[C@H](CCCNC(=N)N)NC(=O)[C@H](CCC(N)=O)NC(=O)[C@H](Cc3cn(C)c4ccccc34)NC(=O)[C@H]([C@@H](C)O)NC(=O)[C@H](CC(N)=O)NC(=O)[C@@H](NC(C)=O)CCC(=O)NCCCC(C(=O)N[C@@H](CC(N)=O)C(=O)N[C@@H](CC(N)=O)C(=O)O)NC(=O)C(C)(C)NC(=O)[C@H](Cc3ccc4ccccc4c3)NC2=O)cc1` (stereo partly drawn) [WO2025051920, Example 35] (Ac-ENT[Trp(1-Me)]QRY(Me)[2Nal][Aib][ξOrn]NN-OH; lactam 1-10) had a half-maximal inhibitory concentration (IC50) of 4.55 nM.

As for `COc1ccc(C[C@@H]2NC(=O)[C@H](CCCNC(=N)N)NC(=O)[C@H](CCC(N)=O)NC(=O)[C@H](Cc3cn(C)c4ccccc34)NC(=O)[C@H]([C@@H](C)O)NC(=O)[C@H](CC(N)=O)NC(=O)[C@@H](NC(C)=O)CC(=O)NCCCC(C(=O)N[C@@H](CC(N)=O)C(=O)N[C@@H](CC(N)=O)C(=O)O)NC(=O)C(C)(C)NC(=O)[C@H](Cc3c[nH]c4ccccc34)NC2=O)cc1` (some centres undefined) [WO2025051920, Example 36] (Ac-DNT[Trp(1-Me)]QRY(Me)W[Aib][ξOrn]NN-OH; lactam 1-10), the IC50 came to 19.5 nM.

In turn, `COc1ccc(C[C@@H]2NC(=O)[C@H](CCCNC(=N)N)NC(=O)[C@H](CCC(N)=O)NC(=O)[C@H](Cc3cn(C)c4ccccc34)NC(=O)[C@H]([C@@H](C)O)NC(=O)[C@H](CC(N)=O)NC(=O)[C@@H](NC(C)=O)CC(=O)NCCCC(C(=O)N[C@@H](CC(N)=O)C(=O)N[C@@H](CC(N)=O)C(=O)O)NC(=O)[C@H](CC(C)C)NC(=O)[C@H](Cc3ccc4ccccc4c3)NC2=O)cc1` (some centres undefined) [WO2025051920, Example 37] (Ac-DNT[Trp(1-Me)]QRY(Me)[2Nal]L[ξOrn]NN-OH; lactam 1-10) came in with an IC50 of 3.57 nM.

Turning to `COc1ccc(C[C@@H]2NC(=O)[C@H](CCNC(=N)N)NC(=O)[C@H](CCC(N)=O)NC(=O)[C@H](Cc3c[nH]c4ccccc34)NC(=O)[C@H]([C@@H](C)O)NC(=O)[C@H](CC(N)=O)NC(=O)[C@H](NC(C)=O)CCCCNC(=O)C[C@@H](C(=O)N[C@@H](CC(N)=O)C(=O)N[C@@H](CC(N)=O)C(=O)O)NC(=O)C(C)(C)NC(=O)[C@H](Cc3ccc4ccccc4c3)NC2=O)cc1` [WO2025051920, Example 39], 1.46 nM corresponded to half-maximal inhibition (IC50).

`COc1ccc(C[C@@H]2NC(=O)[C@H](CCNC(=N)N)NC(=O)[C@H](CCC(N)=O)NC(=O)[C@H](Cc3c[nH]c4ccccc34)NC(=O)C([C@@H](C)O)NC(=O)[C@H](CC(N)=O)NC(=O)C(N)CCCCCNC(=O)CC[C@H](C(=O)N[C@@H](CC(N)=O)C(=O)N[C@@H](CC(N)=O)C(=O)O)NC(=O)C(C)(C)NC(=O)[C@H](Cc3ccc4ccccc4c3)NC2=O)cc1` (some centres undefined) [WO2025051920, Example 40] came in with an IC50 of 3.11 nM.

Turning to `COc1ccc(C[C@@H]2NC(=O)[C@H](CCCNC(=N)N)NC(=O)[C@H](CCC(N)=O)NC(=O)[C@H](Cc3c[nH]c4ccccc34)NC(=O)C([C@@H](C)O)NC(=O)[C@H](CC(N)=O)NC(=O)C(NC(C)=O)CCCCNC(=O)CC(C(=O)N[C@@H](CC(N)=O)C(=O)N[C@@H](CC(N)=O)C(=O)O)NC(=O)C3(CCOCC3)NC(=O)[C@H](Cc3ccc4ccccc4c3)NC2=O)cc1` (stereo partly drawn) [WO2025051920, Example 41] (Ac-[ξK]N[ξThr(3R)]WQRY(Me)[2Nal][Thp][ξD]NN-OH; lactam 1-10), 1.47 nM corresponded to half-maximal inhibition (IC50).

`COc1ccc(C[C@@H]2NC(=O)[C@H](CCCNC(=N)N)NC(=O)[C@H](CCC(N)=O)NC(=O)[C@H](Cc3c[nH]c4ccccc34)NC(=O)C(Cc3c[nH]cn3)NC(=O)[C@H](CC(N)=O)NC(=O)C(NC(C)=O)CCCCNC(=O)CC(C(=O)N[C@@H](CC(N)=O)C(=O)N[C@@H](CC(N)=O)C(=O)O)NC(=O)C3(CCOCC3)NC(=O)[C@H](Cc3ccc4ccccc4c3)NC2=O)cc1` (some centres undefined) [WO2025051920, Example 42] (Ac-[ξK]N[ξH]WQRY(Me)[2Nal][Thp][ξD]NN-OH; lactam 1-10) returned an IC50 of 18.1 nM.

Turning to `COc1ccc(C[C@@H]2NC(=O)[C@H](C)NC(=O)[C@H](CCC(N)=O)NC(=O)[C@H](Cc3c[nH]c4ccccc34)NC(=O)C([C@@H](C)O)NC(=O)[C@H](CC(N)=O)NC(=O)C(N)CCCCCNC(=O)C[C@H](C(=O)N[C@@H](CC(N)=O)C(=O)N[C@@H](CC(N)=O)C(=O)O)NC(=O)C(C)(C)NC(=O)[C@H](Cc3ccc4ccccc4c3)NC2=O)cc1` (some centres undefined) [WO2025051920, Example 43], the IC50 amounted to 1.44 nM.

In turn, `COc1ccc(C[C@@H]2NC(=O)[C@H](C)NC(=O)[C@H](CCC(N)=O)NC(=O)[C@H](Cc3c[nH]c4ccccc34)NC(=O)[C@H]([C@@H](C)O)NC(=O)[C@H](CCCNC(=N)N)NC(=O)[C@H](NC(C)=O)CCCCNC(=O)C[C@@H](C(=O)N[C@@H](CC(N)=O)C(=O)N[C@@H](CC(N)=O)C(=O)O)NC(=O)C(C)(C)NC(=O)[C@H](Cc3ccc4ccccc4c3)NC2=O)cc1` [WO2025051920, Example 45] gave an IC50 of 0.96 nM.

For `COc1ccc(C[C@@H]2NC(=O)[C@H](C)NC(=O)[C@H](CCC(N)=O)NC(=O)[C@H](Cc3c[nH]c4ccccc34)NC(=O)[C@H](CCCNC(=N)N)NC(=O)[C@H](CC(N)=O)NC(=O)[C@H](NC(C)=O)CCCCNC(=O)C[C@@H](C(=O)N[C@@H](CC(N)=O)C(=O)N[C@@H](CC(N)=O)C(=O)O)NC(=O)C(C)(C)NC(=O)[C@H](Cc3ccc4ccccc4c3)NC2=O)cc1` [WO2025051920, Example 46], the IC50 is 1.38 nM. This IC50 and that of the compound before are within 1.5-fold of each other.

Compound `COc1ccc(C[C@@H]2NC(=O)[C@H](C)NC(=O)[C@H](CCC(N)=O)NC(=O)[C@H](Cc3c[nH]c4ccccc34)NC(=O)[C@H]([C@@H](C)O)NC(=O)[C@H](CC(N)=O)NC(=O)[C@H](NC(C)=O)CCCCNC(=O)C[C@@H](C(=O)N[C@@H](CC(N)=O)C(=O)N[C@@H](CC(N)=O)C(=O)O)NC(=O)[C@H](CCCNC(=N)N)NC(=O)[C@H](Cc3ccc4ccccc4c3)NC2=O)cc1` [WO2025051920, Example 47] returned an IC50 of 1.34 nM. The IC50 values of the last two compounds are within 1.5-fold of each other.

With `COc1ccc(C[C@@H]2NC(=O)[C@H](C)NC(=O)[C@H](CCC(N)=O)NC(=O)[C@H](Cc3c[nH]c4ccccc34)NC(=O)[C@H]([C@@H](C)O)NC(=O)[C@H](CC(N)=O)NC(=O)[C@H](NC(C)=O)CCCCNC(=O)C[C@@H](C(=O)N[C@@H](CC(N)=O)C(=O)N[C@@H](C)C(=O)O)NC(=O)C(C)(C)NC(=O)[C@H](Cc3ccc4ccccc4c3)NC2=O)cc1` [WO2025051920, Example 48], half-maximal inhibition (IC50) was put at 2.06 nM.

Take `COc1ccc(C[C@@H]2NC(=O)[C@H](C)NC(=O)[C@H](CCC(N)=O)NC(=O)[C@H](Cc3c[nH]c4ccccc34)NC(=O)[C@H]([C@@H](C)O)NC(=O)[C@H](CC(N)=O)NC(=O)[C@H](NC(C)=O)CCCCNC(=O)C[C@@H](C(=O)N[C@@H](C)C(=O)N[C@@H](CC(N)=O)C(=O)O)NC(=O)C(C)(C)NC(=O)[C@H](Cc3ccc4ccccc4c3)NC2=O)cc1` [WO2025051920, Example 49]: inhibition was half-maximal at 3.13 nM (IC50).

Usually IC50 stands for the concentration that inhibits the measured activity by half. A lower IC50 goes with higher potency.
